From patent US20130330756A1, “DETECTION OF BACTERIA EXHIBITING ENZYMATIC RESISTANCE TO CARBAPENEMS” (BIOMERIEUX, priority 2011, published 2013)
Like-named read-outs stand apart in the source and are kept apart here. Values belong to the compound of their own block, whether it stands above or below them. Peptide text beside a SMILES is read from it. * marks the point of attachment. βNA = c1ccc2cc(N*)ccc2c1

Key:
[1] = tested on: Enterobacter IR strains; experiment: Ertapenem E-test MIC, impermeability-resistant (IR) Enterobacter strains; type: cell-based, Enterobacter aerogenes, Enterobacter cloacae; settings: for number of strains: >2 MIC steps impact on ertapenem MIC / number of strains: No impact on ertapenem MIC: Enterobacter IR strains, Mueller Hinton, cloxacillin 200 mg/l and/or PAbetaN 25 mg/l, vs medium without either; for MIC with ertapenem: E. aerogenes strain 9306074
Experimental: (§1) The effect of cloxacillin and PAbetaN on the MICs of the strains with ertapenem was evaluated firstly using E-test® strips in Mueller Hinton medium. […] The second test consisted in evaluating the impact of these 2 compounds on the MICs with ertapenem of 29 carbapenemases-producing strains (+1 ESBL).
(§2) Test B100904: the 19 impermeability-resistant (IR) strains belong to the following species: 10 Enterobacter aerogenes, 2 Enterobacter cloacae, 1 Citrobacter freundii, 1 Pseudomonas aeruginosa, 3 Proteus mirabilis and 2 Morganella morganii.
(§3) The E-tests were performed in Mueller-Hinton medium supplemented or not supplemented with cloxacillin and/or PAbetaN according to Table I:
(§4) 2. Test • Production for each strain of an approximately 0.5 McF suspension in a 0.85% NaCl ampule. • Seeding of the 4 media by semi-automatic swabbing. • Drying of the dishes at ambient temperature for 5 to 15 min. • Application of the ertapenem E-test® strip. • Incubation for 16 to 20 hours at 37° C.

[2] = tested on: Citrobacter IR strain; experiment: Ertapenem E-test MIC, IR Citrobacter strain; type: cell-based, Citrobacter freundii; settings: cloxacillin 200 mg/l and/or PAbetaN 25 mg/l, vs medium without either
Experimental: as §1, §2, §3, §4

[3] = tested on: Proteus IR strains; experiment: Ertapenem E-test MIC, IR Proteus strains; type: cell-based, Proteus mirabilis; settings: cloxacillin 200 mg/l and/or PAbetaN 25 mg/l, vs medium without either
Experimental: as §1, §2, §3, §4

[4] = tested on: Morganella IR strains; experiment: Ertapenem E-test MIC, IR Morganella strains; type: cell-based, Morganella morganii; settings: cloxacillin 200 mg/l and/or PAbetaN 25 mg/l, vs medium without either
Experimental: as §1, §2, §3, §4

[5] = tested on: Pseudomonas IR strain; experiment: Ertapenem E-test MIC, IR Pseudomonas strain; type: cell-based, Pseudomonas aeruginosa
Experimental: as §1, §2, §3, §4

[6] = tested on: 19 impermeability-resistant (IR) strains; experiment: Ertapenem E-test MIC, all 19 IR strains (TOTAL); type: cell-based; settings: for number of strains: >2 MIC steps impact on ertapenem MIC / number of strains: No impact on ertapenem MIC / number of strains: ≦2 MIC steps impact on ertapenem MIC: TOTAL of 19 IR strains, cloxacillin 200 mg/l and/or PAbetaN 25 mg/l, vs medium without either
Experimental: as §1, §2, §3, §4

[7] = tested on: ESBL Escherichia coli strain; experiment: Ertapenem E-test MIC, ESBL strain; type: cell-based; settings: cloxacillin 200 mg/l and/or PAbetaN 25 mg/l, vs medium without either
Experimental: as §1
(§5) Test B101001: twenty-nine carbapenemase-producing strains divided as follows: 27 Klebsiella pneumoniae strains producing class A KPC carbapenemase (KPC), and 2 strains respectively of Klebsiella pneumoniae and Citrobacter freundii which produce class-B carbapenemase (NDM-1). This test also comprised an ESBL Escherichia coli strain.
as §3, §4

[8] = tested on: class-B carbapenemase (NDM-1) producing strains; experiment: Ertapenem E-test MIC, NDM-1 strains; type: cell-based, Klebsiella pneumoniae, Citrobacter freundii; settings: cloxacillin 200 mg/l and/or PAbetaN 25 mg/l, vs medium without either
Experimental: as §1, §5, §3, §4

[9] = tested on: class A KPC carbapenemase producing strains; experiment: Ertapenem E-test MIC, KPC strains; type: cell-based, Klebsiella pneumoniae
Experimental: as §1, §5, §3, §4

[10] = tested on: carbapenemase-producing strains; type: cell-based
Experimental: as §1, §5, §3, §4

[11] = tested on: 19 IR strains; experiment: Agar dilution growth on chromogenic media with faropenem, IR strains; type: cell-based; settings: for additional IR strains inhibited: faropenem 16 mg/L
Experimental: (§6) Seventy-seven strains of Gram-negative bacteria, of which 71 are enterobacteria and 6 non-enterobacteria (non-fermenting bacteria), whose resistance characteristics are set out in Table IV, were tested on media containing different concentrations of faropenem and cloxacillin, with or without PAbetaN, in order to establish the sensitivity and the specificity of each formulation. The tested media are described in Table V.
(§7) The chromogenic media are divided into 120×120 square dishes.
(§8) The seeding is performed from 24-h pre-cultures at 37° C. on trypcase soy agar. For each strain, a 0.5 McF suspension in physiological water is produced. Each suspension is spot-seeded (1 to 2 μL) on each medium with the aid of a multi-point inoculator according to the Agar Dilution (AD) method. Readings are performed after 24 hours of incubation at 37° C.
(§9) An absence of bacterial growth or a number of colonies which is less than or equal to 3 are considered as corresponding to a growth inhibition. The presence of 4 colonies or more is considered to be positive growth.

[12] = tested on: carbapenemase-producing strains; experiment: Agar dilution growth on chromogenic media with faropenem, carbapenemase-producing strains; type: cell-based
Experimental: as §6, §7, §8, §9

[13] = Pseudomonas IR strain, cloxacillin 200 mg/l and/or PAbetaN 25 mg/l, vs medium without either
[14] = TOTAL (ESBL+NDM+KPC), cloxacillin 200 mg/l and/or PAbetaN 25 mg/l, vs medium without either
[15] = PAbetaN added to cloxacillin, against MICs with cloxacillin, 17 strains already decreased >2 steps by cloxacillin
[16] = KPC strains, cloxacillin 200 mg/l and/or PAbetaN 25 mg/l, vs medium without either
[17] = PAbetaN alone in Mueller Hinton

SMILES: Cc1onc(-c2ccccc2Cl)c1C(=O)N[C@@H]1C(=O)N2[C@@H]1SC(C)(C)[C@@H]2C(=O)O [CLX, cloxacillin]
MIC with ertapenem in medium with the named additive ([1]; E. cloacae IR strain unimpacted by cloxacillin alone): > 32 µg/mL
number of strains: >2 MIC steps impact on ertapenem MIC [1]: 11
number of strains: No impact on ertapenem MIC [1]: 1
number of strains: >2 MIC steps impact on ertapenem MIC [2]: 1
number of strains: >2 MIC steps impact on ertapenem MIC [3]: 3
number of strains: >2 MIC steps impact on ertapenem MIC [4]: 2
number of strains: ≦2 MIC steps impact on ertapenem MIC [5, 13]: 1
number of strains: >2 MIC steps impact on ertapenem MIC [6]: 17
number of strains: No impact on ertapenem MIC [6]: 1
number of strains: ≦2 MIC steps impact on ertapenem MIC [6]: 1
IR strains whose MICs with ertapenem are reduced by more than 2 concentration steps ([6]; cloxacillin added to Mueller Hinton medium): 16/19
number of strains: No impact on ertapenem MIC [7]: 1
number of strains: No impact on ertapenem MIC [8]: 2
number of strains: >2 MIC steps, positive MIC effect [9]: 2
number of strains: No impact on ertapenem MIC [9]: 7
number of strains: ≦2 MIC steps, negative MIC effect [9]: 16
number of strains: >2 MIC steps, negative MIC effect ([9]; 200 ug/mL): 1
number of strains: >2 MIC steps, positive MIC effect [10, 14]: 2
number of strains: No impact on ertapenem MIC [10, 14]: 10
number of strains: ≦2 MIC steps, negative MIC effect [10, 14]: 16
number of strains: >2 MIC steps, negative MIC effect ([10]; TOTAL (ESBL+NDM+KPC), cloxacillin 200 mg/l, vs medium without): 1
number of carbapenemase-producing strains (NDM or KPC) with no impact on MIC with ertapenem ([10]; cloxacillin): 9
number of carbapenemase-producing strains with MIC slightly reduced ([10]; cloxacillin): 16
additional IR strains inhibited ([11]; addition of 50 mg/L cloxacillin): 6
additional IR strains inhibited ([11]; addition of 200 mg/L cloxacillin): 9
impact on growth of carbapenemase-producing strains ([12]; cloxacillin alone, at the 3 concentrations of faropenem tested): little or no impact

SMILES: C[C@@H](O)[C@H]1C(=O)N2C(C(=O)O)=C([C@H]3CCCO3)S[C@H]12 [Faropenem, faropenem]
impact on growth of IR strains ([11]; faropenem alone, up to 16 mg/L): little impact

SMILES: NC(N)=NCCC[C@H](NC(=O)[C@@H](N)Cc1ccccc1)C(=O)Nc1ccc2ccccc2c1 [PAbetaN, phenylalanine-arginine-beta-naphthylamide] (H-Phe-Arg-βNA)
MIC with ertapenem ([1]; in the presence of PAbetaN alone): > 32 µg/mL
number of strains: >2 MIC steps impact on ertapenem MIC [1]: 2
number of strains: No impact on ertapenem MIC [1]: 10
number of strains: No impact on ertapenem MIC [2]: 1
number of strains: No impact on ertapenem MIC [3]: 3
number of strains: No impact on ertapenem MIC [4]: 2
effect on ertapenem MIC of adding PAbetaN in addition to cloxacillin ([5]; P. aeruginosa IR strain): not affected
number of strains: No impact on ertapenem MIC [5, 13]: 1
number of IR strains unimpacted [6, 15]: 1
number of IR strains with MICs decreased by two additional MIC steps [6, 15]: 7
number of IR strains with less significantly decreased MICs (≦2 MIC steps) [6, 15]: 5
impact of PAbetaN alone on ertapenem MICs of the majority of the IR strains ([6]; PAbetaN alone): no impact
number of strains: >2 MIC steps impact on ertapenem MIC [6]: 2
number of strains: No impact on ertapenem MIC [6]: 17
number of strains: ≦2 MIC steps impact on ertapenem MIC [6]: 0
number of strains: ≦2 MIC steps, positive MIC effect [7]: 1
number of strains: No impact on ertapenem MIC [8]: 2
number of strains: >2 MIC steps, positive MIC effect [9, 16]: 7
number of strains: No impact on ertapenem MIC [9, 16]: 3
number of strains: ≦2 MIC steps, negative MIC effect [9, 16]: 2
number of strains: ≦2 MIC steps, positive MIC effect [9, 16]: 14
number of strains with MIC with ertapenem slightly increased [10, 17]: 15
number of strains with MIC with ertapenem very distinctly increased [10, 17]: 7
number of strains: >2 MIC steps, positive MIC effect [10, 14]: 7
number of strains: No impact on ertapenem MIC [10, 14]: 5
number of strains: ≦2 MIC steps, negative MIC effect [10, 14]: 2
number of strains: ≦2 MIC steps, positive MIC effect [10, 14]: 15
detection sensitivity with vs without PAbetaN ([12]; 200 mg/L cloxacillin and 8 or 16 mg/L faropenem): does not change
detection sensitivity with vs without PAbetaN ([12]; 8 or 16 mg/L faropenem with 50 or 100 mg/L cloxacillin): greater

MIC with ertapenem ([1]; without PAbetaN): 6 µg/mL
SMILES: C[C@@H](O)[C@H]1C(=O)N2C(C(=O)O)=C(S[C@@H]3CN[C@H](C(=O)Nc4cccc(C(=O)O)c4)C3)[C@H](C)[C@H]12 [ertapenem]
